Measured values from US20250082657A1, “CONJUGATES OF CHEMOTHERAPY AGENTS AND TISSUE-BINDING SMALL MOLECULES, COMPOSITIONS AND METHODS THEREOF” (CANWELL BIOTECH LIMITED, priority 2022, published 2025).
Where two headings read alike, the source gives them in different places.

Tests used:
MC38 = test: Cellular IC50 in MC38 tumor cell line (CellTiter-Glo); type: cell-based; settings: 72 h incubation
Procedure: (§1) The cellular inhibition was determined in three assays: U87MG, A549 and MC38. Cells were recovered and cultured in appropriate medium supplemented with 10% fetal bovine serum and 100 U/mL penicillin G sodium, and maintained in cell incubators (37° C., 5% CO2). Before testing, cells in culture dishes were rinsed with Phosphate Buffered Solution, detached with Trypsin. Dilute and adjust the cell number with the culture medium, add the cell suspension to the 96 well cell plate. Cells were maintained in incubators overnight. In T0 control plate, cells were added with 100 μL CellTiter-Glo reagent, balance at room temperature for 10 minutes, and read the chemiluminescence value with envision.
(§2) In the testing plate, compounds were dissolved with corresponding solvent and diluted gradiently. Diluted compound solution was added to a 96 well plate with cells. After incubation of 72 h, cells were added with 100 μL CellTiter-Glo reagent, balanced at room temperature for 10 minutes, and read the chemiluminescence value with envision. IC50 was calculated using the GraphPad Prism software package (Prism 6 for Windows, Version 6.0, GraphPad Software Inc., San Diego, CA).

A549 = test: Cellular IC50 in A549 tumor cell line (CellTiter-Glo); type: cell-based; settings: A549 cells, 72 h incubation
Procedure: as §1, §2

U87MG = test: Cellular IC50 in U87MG tumor cell line (CellTiter-Glo); type: cell-based; settings: U87MG cells, 72 h incubation
Procedure: as §1, §2

physchem = settings: buffer, pH 7.4
Procedure: (§3) Test compounds spiking solution: 1 mM test compounds spiking solution A: Add 10 μL of 10 mM test compounds stock solution to 90 μL DMSO. • 2. Add 396 μL of buffer into the tubes designated for different time points. Pre-warm the samples at 37° C. for 10 min. • 3. Add 4 μL of spiking solution A into the wells designated as 0 min (or 15, 45, 90, 120 min) containing 396 μL of buffer, then start timing count down. • 4. At each time point, add 1200 μL ACN containing IS into the tubes. • 5. Samples are centrifuged at 10,000 rpm for 5 min, then 100 μL of supernatant are ready for LC-MS/MS analysis.

[1] = male, CD-1, mouse, in vivo
Procedure: (§4) Pharmacokinetic parameters were determined in male CD-1 mice (Shanghai Jihui Laboratory Animal Care Co., Ltd., 6-8 weeks old). Animals were maintained under a 12 hr light/dark cycle. Animals had free access to food and water during the study.
(§5) For intravenous, compounds were formulated as a solution (in 5% DMSO+10% Solutol HS15+85% (20% HP-β-CD in water)) in 5 mL/kg dosing volume and administered via tail vein. For subcutaneous, compounds were formulated as a solution (in 5% DMSO+10% Solutol HS15+85% (20% HP-β-CD in water)) in 10 mL/kg dosing volume or (in 0.5% MC+1% Pluronic F68 in water) in 50 μL/mouse dosing volume and administered via subcutaneous puncture.
(§6) Semi-serial blood samples (about 110 μL) were taken from animal at 0.083, 0.25, 0.5, 1, 2, 4, 8 and 24 hr for IV group and 0.5, 2, 4, 8, 24, 48 and 96 hr for SC group. Samples were held on ice for no longer than 15 minutes before centrifugation (2000 g, 5 min, 4° C.) within 15 minutes post sampling. Plasma was snap frozen in dry ice and then transferred into −70° C. freezer for long term storage until LC-MS/MS analysis.
(§7) Tissue collection for SC group at 0.5, 2, 4, 8, 24, 48 and 96 hr. After animals were anesthetized and exsanguinated, tissue samples (including muscle and skin) were collected and weighted, and then snap frozen in liquid nitrogen and further stored at −70° C. for long term storage until LC-MS/MS analysis. Tissue samples were homogenized under freezing conditions.
(§8) PK parameters were generated from LC-MS/MS data using Phoenix WinNonlin 8.2 software.

[2] = Pharmacokinetics in male CD-1 mice (plasma and tissue, LC-MS/MS); settings: CD-1, mouse
Procedure: as §4, §5, §6, §7, §8

[3] = Chemical stability in PBS (pH 7.4); settings: PBS buffer
Procedure: as §3

in vivo = settings: male, CD-1, mouse, sc, 5 mg/kg
Procedure: as §4, §5, §6, §7, §8

[4] = buffer
Procedure: as §3

[5] = Mus musculus, MC-38, MC38 cells

CC(C)Cc1ccc([C@H](C)C(=O)O)cc1 [Compound 8-1]
IC50 (MC38; [5]): > 10000 nM

CC(C)C[C@H](NC(=O)[C@H](Cc1ccccc1)NC(=O)c1cnccn1)B(O)O [Compound 9-7, Valcade, reference compound]
IC50 (A549; Homo sapiens): 9.36 nM
IC50 (U87MG; Homo sapiens, U-87 MG): 6.89 nM
IC50 (MC38; [5]): 16.3 nM

CCc1c2c(nc3ccc(OC(=O)CCCc4ccc(I)cc4)cc13)-c1cc3c(c(=O)n1C2)COC(=O)[C@]3(O)CC [Compound 1]
half-life at 10 µM (physchem): 19.7 h
Tissue/Plasma ratio ([1]; 3 mg/kg): 171.8
T½ ([1]; 3 mg/kg): 10.3 h

CC(=O)O[C@@]12CO[C@@H]1C[C@H](O)[C@@]1(C)C(=O)[C@H](O)C3=C(C)[C@@H](OC(=O)[C@H](OC(=O)CCCc4ccc(I)cc4)[C@@H](NC(=O)OC(C)(C)C)c4ccccc4)C[C@@](O)([C@@H](OC(=O)c4ccccc4)[C@H]21)C3(C)C [Compound 30, (2aR,4S,4aS,6R,9S,11 S,12S,12aR,12bS)-12b-acetoxy-9-(((2R,3S)-3-((tert-butoxycarbonyl)amino)-2-((4-(4-iodophenyl)butanoyl)oxy)-3-phenylpropanoyl)oxy)-4,6,11-trihydroxy-4a,8,13,13-tetramethyl-5-oxo-2a,3,4,4a,5,6,9,10,11,12,12a,12b-dodecahydro-1H-7,11-methanocyclodeca[3,4]benzo[1,2-b]oxet-12-yl benzoate]
half-life (physchem): 13.4 h

O=C(CCCc1ccc(I)cc1)OCn1cc(F)c(=O)[nH]c1=O [Compound 28, (5-fluoro-2,4-dioxo-3,4-dihydropyrimidin-1(2H)-yl)methyl 4-(4-iodophenyl) butanoate]
AUC(0-t) ([2]; tissue (muscle or skin, not specified which), sc, 10 mg/kg): 37.6 µg·h/mL
half-life ([2]; tissue (muscle or skin, not specified which), subcutaneous, 10 mg/kg): 11.3 h
half-life at 10 µM [3]: 8.4 h

CCc1c2c(nc3ccc(O)cc13)-c1cc3c(c(=O)n1C2)COC(=O)[C@]3(O)CC [Compound 1-1, SN-38, reference compound]
IC50 (A549): 99.5 nM
IC50 (U87MG): 13.6 nM
IC50 (MC38; MC38 cells): 21.2 nM

CCc1c2c(nc3ccc(OC(=O)C(C)CCc4ccc(I)cc4)cc13)-c1cc3c(c(=O)n1C2)COC(=O)[C@]3(O)CC (stereo partly shown) [Compound 2]
half-life at 10 µM (physchem): 23.1 h

CCc1c2c(nc3ccc(OC(=O)[C@@H](C)c4ccc(CC(C)C)cc4)cc13)-c1cc3c(c(=O)n1C2)COC(=O)[C@]3(O)CC [Compound 8, (S)-4,11-diethyl-4-hydroxy-3,14-dioxo-3,4,12,14-tetrahydro-1H-pyrano [3′,4′:6,7]indolizino[1,2-b]quinolin-9-yl(S)-2-(4-isobutylphenyl)propanoate]
IC50 (A549; Homo sapiens): 208 nM
AUC(0-t) (in vivo): 11800 µg·h/mL
half-life (in vivo): 44.1 h
Stability (PBS, pH 7.4) T½ (min) [4]: ∞
T½ ([1]; sc, 5 mg/kg): >96 h
IC50 (U87MG; Homo sapiens, U-87 MG): 13.4 nM
IC50 (MC38; [5]): 22.7 nM

CC(C)Cc1ccc([C@H](C)C(=O)NCCCC[N+]23CC(=O)O[B-]2([C@H](CC(C)C)NC(=O)[C@H](Cc2ccccc2)NC(=O)c2cnccn2)OC(=O)C3)cc1 (stereo partly drawn) [Compound 16, N-((S)-1-(((R)-1-(6-(4-((S)-2-(4-isobutylphenyl)propanamido)butyl)-4,8-dioxo-1,3,6,2-dioxazaborocan-2-yl)-3-methylbutyl)amino)-1-oxo-3-phenylpropan-2-yl)pyrazine-2-carboxamide]
IC50 (A549; Homo sapiens): 10.7 nM
half-life ([2]; in vivo, sc, 1 mg/kg): 93.2 h
AUC(0-t) ([2]; plasma, sc, 1 mg/kg): 0.165 µg·h/mL
Kp ([2]; tissue (muscle or skin, not specified) / plasma, subcutaneous, 1 mg/kg): 365
AUC(0-t) ([2]; tissue (muscle or skin, not specified), sc, 1 mg/kg): 60.3 µg·h/mL
IC50 (U87MG; Homo sapiens, U-87 MG): 7.27 nM
IC50 (MC38; [5]): 15.9 nM

CCc1c2c(nc3ccc(OC(=O)NCCc4ccc(I)cc4)cc13)-c1cc3c(c(=O)n1C2)COC(=O)[C@]3(O)CC [Compound 3, (S)-4,11-diethyl-4-hydroxy-3,14-dioxo-3,4,12,14-tetrahydro-1H-pyrano [3′,4′:6,7]indolizino[1,2-b]quinolin-9-yl(4-iodophenethyl)carbamate]
half-life at 10 µM [3]: 0.85 h

CCc1c2c(nc3ccc(OC(=O)N(C)CCc4ccc(I)cc4)cc13)-c1cc3c(c(=O)n1C2)COC(=O)[C@]3(O)CC [Compound 4, (S)-4,11-diethyl-4-hydroxy-3,14-dioxo-3,4,12,14-tetrahydro-1H-pyrano[3′,4′:6,7]indolizino[1,2-b]quinolin-9-yl(4-iodophenethyl)(methyl)carbamate]
half-life at 10 µM [3]: 3.58 h
